Measurements taken from patent US20150141360A1, “BIOCIDAL COMPOSITIONS” (CEBEC GROUP LTD., priority 2012, published 2015).
Values after ≈ are worked out from the molar mass of the structure shown. Read-outs that look alike come from different tables or passages of the source.

Columns and labels:
[1] = test system: isolated strains from food production environments; type: cell-based
From the text: In the early stages of these investigations, efforts were concentrated on two zoonotic pathogens namely verocytoxigenic Escherichia coli O157 and Salmonella species, along with the recently described powdered infant formula pathogen Cronobacter species. […] Some of the genera appeared to be more susceptible compared with others, as in the case of Cronobacter. Attempts to develop tolerant phenotypes were marginally successful and where this was generated, the phenotype was unstable. […] Highly-tolerant mutant phenotypes were obtained and these are currently being studied in detail, using a dedicated technical pipeline, described above. It was decided that it would be of interest to include the food-borne zoonotic pathogen Campylobacter and to evaluate its susceptibility/tolerance to the same panel compounds. Once again, it could be shown that Campylobacter was susceptible. However, as the panel of compounds used could be described as synthetic, the availability of C-Activ-12 presented the opportunity to re-evaluate the responses of these bacteria to this natural biocide. […] In the current project proposal, this inhibitory effect will be characterised in detail, to provide a means of understanding the mode of action. […] C-Activ-12 is a novel natural biocide. The formulation ingredients are FDA GRAS approved comprising organic acids and natural fruit extracted polyphenols. The broad spectrum activity of the formulation resulted it its inclusion in a University College Dublin Government funded independent study under the FIRM (see hereunder) research program. The program studies the effectiveness of products used to manage micro-organisms/pathogens prevalent in the food sector, comparing effectiveness & testing against isolated strains. […] The Irish Department of Agriculture and Food's Food Institutional Research Measure (FIRM) is funded under the National Development Plan 2007-2013. FIRM is the primary national funding mechanism for food research in third level colleges and research institutes. FIRM is a public good competitive programme whereby multi-disciplinary teams from two or more institutions usually carry out the research projects. Research outputs are communicated to industry by a dedicated dissemination team known as RELAY. FIRM aims to develop public good technologies that will underpin a competitive, innovative and sustainable food manufacturing and marketing sector. The programme is creating a base of knowledge and expertise in generic technologies that will support a modern, consumer-focused industry and build Ireland's capacity for R&D. A key output of the FIRM is highly trained young researchers at PhD and postdoctoral level, with specialist skills particularly relevant to the Irish food sector. The following pages provide an overview of the effectiveness of CeBeC's C-Activ-12 in killing micro-organisms. Standard testing protocols were first applied by AIT CBBR under British & European Food Grade Sanitiser Standard BS EN 1276, requiring a log 5 reduction from a log 7 to a log 2. The activity of C-Activ-12 highlighted a greater than log 6 reduction from a log 8. Based on the results under BS EN 1276, UCD added the product under the FIRM study whereby pathogens were isolated from food production environments. The rationale behind this approach is that most standards rely on ATCC & NCTC cultures which are more than often easier to kill than isolates.

[2] = test system: Escherichia coli ATCC 25922; experiment: Preliminary evaluation of bactericidal efficacy (5 min treatment, colony counts); type: cell-based; set-up: key: TNTC=To Numerous To Count; conditions: 5 min exposure to 0.5% v/v
Procedure: The compositions are suitable for use in the food and food processing industry. For rapid screening, a preliminary method allowed selection of the most efficient formulations. […] The composition of each formulation (0.5% v/v) was used blind to ensure no bias. The formulation was reviewed after each set of tests to improve the products composition and efficiency. Prototype formulations were prepared under aseptic conditions.
Typically, an overnight culture of bacteria strains were diluted 1:1000 in sterile hard water to a final density of approx 1×10^6 bacteria. A 1 ml volume of bacteria was treated for 5 minutes at room temperature with 500 μl of antimicrobial solutions. […] The treatment was ceased by the addition of 200 μl of the neutralising solution. All strains were serially diluted to 10^−5 in sterile peptone water and 100 μl were plated in duplicate on the appropriate plate and then incubated at 37° C. for 24 hours except Campylobacter jejuni and Enterococcus hirae. The appropriate controls were included in each test e.g. an unopened agar plate and a set of serially diluted, untreated bacteria. After mesophilic aerobic incubation (or mesophilic microaerophilic incubation for C. jejuni), the number of colonies was enumerated and compared to the untreated controls to determine if a Log order reduction was obtained.

[3] = 74 strains, unheaded column beside Stdev (presumably mean)

| SMILES | MBC [1, 3] | MIC [1, 3] | MBC Range ([1]; range over 74 strains) | MIC Range ([1]; range over 74 strains) | E. coli bacterial colony counts (average of two replicates), Bacterial Dilution 10^−1 [2] | E. coli bacterial colony counts (average of two replicates), Bacterial Dilution 10^−2 [2] | E. coli bacterial colony counts (average of two replicates), Bacterial Dilution 10^−3 [2] | E. coli bacterial colony counts (average of two replicates), Bacterial Dilution 10^−4 [2] | E. coli bacterial colony counts (average of two replicates), Bacterial Dilution 10^−5 [2] | E. coli bacterial colony counts (average of two replicates), Bacterial Dilution Neat [2] | other results |
| --- | --- | --- | --- | --- | --- | --- | --- | --- | --- | --- | --- |
| C=CCc1ccc(O)c(OC)c1 [Eugenol] | 0.99 ul/ml | 0.86 ul/ml | 0.25-2 ul/ml | 0.25-2 ul/ml | – | – | – | – | – | – | – |
| O=C(O)CC(O)C(=O)O (stereo not shown) [E3, MALIC ACID] | – | – | – | – | TNTC | TNTC | TNTC | TNTC | >61 | TNTC | – |
| CC1=CC[C@@H](C(C)(C)O)CC1 [a-Terpineol] | 2.84 ul/ml | 2.43 ul/ml | 0.42-7.59 ul/ml | 0.53-7.59 ul/ml | – | – | – | – | – | – | – |
| O=C(O)c1ccccc1 [Benzoic Acid] | – | – | – | – | – | – | – | – | – | – | MBC [1]: 920.79 µg/mL (≈ 7540 µM); MBC Range [1]: 165 to 1320 µg/mL; MIC [1]: 810.51 µg/mL (≈ 6640 µM); MIC Range [1]: 247.5 to 1320 µg/mL |
| O=C/C=C/c1ccccc1 [Trans-cinnaldeheyde] | 0.50 ul/ml | 0.43 ul/ml | 0.05-0.8 ul/ml | 0.2-0.8 ul/ml | – | – | – | – | – | – | – |
| O=C(O)CC(O)(CC(=O)O)C(=O)O [E4, CITRIC ACID] | – | – | – | – | TNTC | TNTC | >159 | TNTC | 10 | TNTC | – |
| O=C(O)/C=C/c1ccccc1 [Cininamic Acid] | 119.40 µg/mL (≈ 806 µM) | 95.12 µg/mL (≈ 642 µM) | 23.44 to 421.88 µg/mL | 23.44 to 140.65 µg/mL | – | – | – | – | – | – | – |
| O=C1O[C@H]([C@@H](O)CO)C(O)=C1O [E5, ASCORBIC ACID] | – | – | – | – | TNTC | TNTC | TNTC | TNTC | TNTC | TNTC | – |
| Cc1ccc(C(C)C)c(O)c1 [Thymol] | 121.38 µg/mL (≈ 808 µM) | 85.73 µg/mL (≈ 571 µM) | 4.92 to 315 µg/mL | 19.69-315^ ug/ml | – | – | – | – | – | – | – |
| CC(C)=CCC/C(C)=C/CO [Geraniol] | 9.46 ul/ml | 8.29 ul/ml | 0.94-22.5 ul/ml | 0.94-15^ ul/ml | – | – | – | – | – | – | – |
